The values that follow come from article PMC10775556, “Synthesis, antileishmanial, antimalarial evaluation and molecular docking study of some hydrazine-coupled pyrazole derivatives” (BMC Chemistry, 2024).

For data set [1], the system named is Leishmania aethiopica promastigotes. Nature of the data set: In vitro antipromastigote (antileishmanial) assay, AlamarBlue. In kind it is cell-based. Here is the method:
The viability of promastigotes can be estimated by microscopically counting live cells, measuring enzyme activities via the 3-(4,5-dimethyl-thiazol-2-yl)-2,5-diphenyl-tetrazolium bromide (MTT) assay, etc. The frequent use of these methods is hampered due to the lengthy and time-consuming procedures followed in the test. […] The extent of fluorescence produced by each sample is strongly correlated with the number of living cells.
A complete culture medium was prepared from RPMI-1640, 10% HIFCS, 1% penicillin–streptomycin, and 1% L-glutamine for the in vitro antipromastigote assay. The Leishmania aethiopica isolate was grown first on Novy-MacNeal-Nicolle (NNN) medium and then in tissue-culture flasks containing RPMI-1640 medium supplemented with 10% HIFCS and 1% 100 IU penicillin/mL-100 µg/mL streptomycin solution at 22 ℃ [35].
The entire test compound was dissolved in DMSO to a final concentration of 1 mg/mL. The final DMSO concentration was adjusted not to exceed v/v 1% to avoid its inhibitory effect against parasite proliferation or change in morphology. Six different concentrations of test compounds, ranging from 10 µg/mL to 0.04 µg/mL, were prepared by […] serial dilutions. Amphotericin B deoxycholate (with a concentration ranging from 0.5 µg/mL to 0.002 µg/mL) and miltefosine (with a concentration ranging from 40 µg/mL to 0.16 µg/mL) were used as a positive control and DMSO (v/v 1%) in complete media was used as a negative control to compare the antileishmanial activities of test compounds [36]. All the prepared drugs were stored at − 20 ℃ until used in the experiment.
The antileishmanial activity of the test compounds was evaluated in vitro against isolates of Leishmania aethiopica promastigotes. 100 µL of the parasite suspension containing 3 × 10^6 promastigotes per milliliter was added to 96-well plates. The six different concentrations of test compounds and reference drugs were then added in triplicate. DMSO in complete RPMI media was used as a negative control to compare the antileishmanial activities of the test compounds. After 24 h incubation, 20 µL of fluorochrome AlamarBlue® (12.5 mg resazurin dissolved in 100 mL of distilled water) was added to each well. Then, the absorbance of each well was measured after 4 h of incubation at wavelengths of 492 and 630 nm using an ELISA reader for the quantitative determination of viable cells. Finally, the IC50 values were computed from sigmoidal dose–response curves using GraphPad Prism 5.0 software (GraphPad Software, Inc., San Diego, CA, USA).

Data set [2] has as its system Plasmodium berghei ANKA strain. Nature of the data set: In vivo antimalarial four-day suppressive test. To be noted: for inhibition in vivo at 48.46 µmol/kg: Plasmodium berghei, in Mus musculus, 96 h, read-out: % Suppression. Details: species or system Swiss albino mice. The source says:
The four-day suppressive test was implemented to screen the antimalarial activity of the target compounds as it is effective in evaluating early infections and convenient to assess the prodrug effects of test compounds [30]. In this study, the in vivo antimalarial activity of the target compounds was investigated by using mice infected with Plasmodium berghei (achieve steady-state infection) at a dose of 48.4 µmol/kg per day. The results of the antimalarial activity screening of target compounds against the control groups were expressed based on mean parasitemia and percent inhibition of parasitemia (Table 2) which is known as a reliable parameter for in vivo antimalarial screening tests. […] While compounds 9, 10 and 11 containing amidic carbonyl group had less than 50% mean percent suppression compared to the positive control groups. Among the tested compounds, bis-[N,N-dimethylaminomethylene-4-(3-(4-methylphenyl)-4-(hydrazonomethylene)-1H-pyrazole-1-yl)benzenesulfonamide] […] On the other hand, there was an increase in the mean survival time (9.8 ± 1.3) of mice treated with a half dose ([…]) of compound 15, highlighting the potential dose-dependent toxicity associated with bis-structure due to cleavage of acid labile C = N bond and subsequent increase in concentration in the systemic circulation. […] This could be attributed to the presence of a primary amine group adjacent to the C = N bond that can increase the strength of binding interaction with the active site of the receptor by hydrogen bonding. Moreover, the hydrophobic interaction imparted by the methylated phenyl group with the amino acid residues in the enzyme pocket may be beneficial for the observed antimalarial activity of compound 14. The compounds containing C = O bond (9–12) near C = N had relatively lower antimalarial activity due to the electron-withdrawing effect and subsequent decrease in hydrogen bonding interactions with the different functional groups reside in the enzyme pocket.
The in vivo antimalarial activity of the synthesized compounds was determined using the four-day standard suppressive test using Swiss albino mice donated by the Ethiopian Health and Nutrition Institute, Addis Ababa, Ethiopia. Briefly, Swiss albino mice were infected with Plasmodium berghei ANKA strain (0.2 mL of 2 × 10^7 parasitized erythrocytes) through intraperitoneal injection. After 2 h of infection, the mice were weighed and randomly divided into nine groups of five mice per cage. Groups 1–7 received each test compound ([…]) dissolved in a vehicle containing 7% Tween 80, 3% ethanol, and water. Group 8 was treated with chloroquine phosphate (25 mg/kg) suspended in 7% Tween 80, 3% ethanol, and water which served as a positive control. Group 9 received 2 mL/100 g of the negative control (vehicle 7% Tween 80, 3% ethanol, and water). On day four (96 h post-infection), a blood smear was taken from the tail of each mouse, fixed with absolute ethanol, and stained with Giemsa stain. Then, the level of parasitemia was determined microscopically by counting four fields of approximately 100 erythrocytes per field. Finally, the antimalarial effects of control groups and test compounds were expressed in terms of blood parasitemia, percent suppression and mean survival time of mice.
The % suppression and % parasitemia in the antimalarial activity testing were computed using the formulas given below and the resulting data along with the mean survival time was analyzed using Microsoft office excel 2007. The variation in the values of suppressive test was assessed by using one-way analysis of variance (ANOVA) and p < 0.05 is considered as stastically significant.
Parasitemia(%)=Numberofinfectedredbloodcells/Numberoftotalredbloodcells×100
Suppression(%)=Parasitemiaintheuntreatedgroup-Parasitemiainthetreatedgroup/Parasitemiainuntreatedgroup×100

Data set [3] is described as follows: In vitro cytotoxicity test. In kind it is cell-based, African green monkey. To be noted: African green monkey, VERO cells (African green monkey kidney cells); normal VERO cells, 72 h, formazan OD. Here is the method:
(§1) The cytotoxicity of compound 13 with promising antileishmanial activity was investigated in vitro against African green monkey kidney cells (VERO cells). In a 96-well plate, VERO cells (1 × 10^5 cells per well) were incubated in triplicates with different concentrations of compound 13 (0–100 µM) for 72 h at 37 ℃ incubator with 95% humidity and 5% CO2 and the cell viability was determined by measuring the optical density (OD) of formazan. […] The CC50 and IC50 values were computed using the formula: Growth inhibition (%) = (ODcontrol-ODtest/ODcontrol)×100 . In addition, the selectivity indices (SI) were computed using the formula SI = CC50/IC50.

The subject of another data set is VERO cells. Nature of the data set: In vitro cytotoxicity test. In kind it is cell-based, African green monkey. To be noted: CC50 VERO cells / IC50 Leishmania aethiopica. Here is the method:
as §1

The nature of data set [4]: In vivo acute toxicity test (oral and intraperitoneal). To be noted: mice. Here is the method: The mice were weighed and divided into five groups of six mice per cage. After fasting them overnight, groups 1–4 received the test compound suspended in 1% acacia gum was administered orally at doses of 50, 100, 200, and 300 mg/kg. Group 5 (served as a control) was treated with the solvent (1% acacia gum) at a maximum dose of 1 mL/100 gm of body weight. […] Follow-up continued for 14 days with special attention for the first 24 h.

Data set [5] deals with chloroquine-resistant RKL9 strains. To be noted: read-out: IC50 against chloroquine-resistant RKL9 strains; cited from earlier work.
Details of data set [6]: method as in PMID 25768697. To be noted: cited from earlier work.
Setting [7] is: Leishmania aethiopica, value used for selectivity index, read-out: IC50 (µM) of antileishmanial activity (Table 3).
Where [8] appears, read: P. berghei infected mice, day 4, 48.46 µmol/kg per day (CQ 25 mg/kg), mean ± SD.

In brackets after ≈: the same amount, converted by molar mass. Several values for one entry are separate records, joined by “and”; a condition that tells them apart may be missing. Equal values may be shown once. Read-outs that look alike come from different tables or passages of the source.

For the compound `Cc1ccc(-c2nn(-c3ccc(S(=O)(=O)N=CN(C)C)cc3)cc2/C=N/Nc2ccccc2)cc1` [Compound 13, N,N-dimethylaminomethylene-4-[(3-(4-methylphenyl)-4-(phenylhydrazonomethylene))-1H-pyrazol-1-yl]benzenesulfonamide], the IC50 in data set [1] (Leishmania aethiopica, read-out: IC50 Values (µM/mL), antipromastigote activity) worked out at 0.033 µM; in data set [1] (setting [7]) it was 0.604 µM. Besides, in data set [1] (ratio of IC50 values versus amphotericin B deoxycholate), the “fold more active than amphotericin B deoxycholate (antipromastigote)” value is recorded as about 2.6 fold. The “Mean survival time” value in data set [2] (P. berghei infected mice, 48.46 µmol/kg per day (CQ 25 mg/kg), mean ± SD, ND = no mouse death recorded during the study period) amounted to 9.5 ± 1.9 days. In data set [2] (setting [8]), the “% Parasitemia” value came out at 24.0 ± 1.7%. For the same compound, in data set [2] (P. berghei infected mice, day 4, 48.46 µmol/kg per day (CQ 25 mg/kg)), the inhibition in vivo at 48.46 µmol/kg is over 50%. The same compound had a CC50 at 72 h in data set [3] of 118 µM. Besides, the “SI (selectivity index, CC50/IC50)” value with VERO cells is 194 and 194.88. In addition, in data set [4] (intraperitoneal injection ≤ 140 mg/kg, within 24 h or the entire study period), the intraperitoneal acute toxicity result is reported as “devoid of any inherent dose-dependent toxicity or death”. Further, in data set [4] (oral 50, 100, 200 and 300 mg/kg, 14 days), the “oral acute toxicity: death” value is “devoid of any death at all dose”. Besides, the “oral acute toxicity: physical and gross behavioral observations” value in data set [4] (oral, up to highest dose 300 mg/kg) was “no visible symptoms of toxicity”.

In the case of `CCN(CC)CCCC(C)Nc1ccnc2cc(Cl)ccc12` (centres unmarked) [CQ, Chloroquine phosphate, reference compound], the “% Parasitemia” value in data set [2] (setting [8]) turned out to be 0%. Also, in data set [2], the inhibition in vivo at 48.46 µmol/kg was 100%. Besides, the IC50 in data set [5] was 0.192 µM.

Regarding `CCCCCCCCCCCCCCCCOP(=O)([O-])OCC[N+](C)(C)C` [Miltefosine, hexadecylphosphocholine, reference compound], the IC50 in data set [1] (Leishmania aethiopica promastigotes, triplicate, 24 h incubation + 4 h AlamarBlue, read-out: IC50 Values (µg/mL), antipromastigote activity) was found to be 3.13 µg/mL; in data set [1] (Leishmania aethiopica promastigotes, molar form of the µg/mL values, read-out: IC50 Values (µM/mL), antipromastigote activity) it was 7.68 µM; in data set [1] (setting [7]), 7.9 µM. The CC50 at 72 h in data set [3] was 99.7 µM. Besides, the “SI (selectivity index, CC50/IC50)” value with VERO cells came to 12.63. The “IC50, antileishmanial activities” value in data set [6] is on record as 3.1921 µg/mL (≈ 7.83 µM).
